The assay concerns the target human α2δ-1 subunit of Cav2.2 calcium channel (Homo sapiens (Human), UniProt P54289). As to the kind of experiment: Binding assay to human α2δ-1 subunit of Cav2.2 calcium channel ([3H]-Gabapentin). The note with it: Table 1, human α2δ-1 enriched membranes, read-out: Ki (nM) alpha2delta Hum. On the procedure: Binding Assay to Human α2δ-1 Subunit of Cav2.2 Calcium Channel.
Human α2δ-1 enriched membranes (2.5 μg) were incubated with 15 nM of radiolabeled [3H]-Gabapentin in assay buffer containing Hepes-KOH 10 mM, pH 7.4.
NSB (non specific binding) was measured by adding 10 μM pregabalin. The binding of the test compound was measured at five different concentrations. After 60 min incubation at 27° C., binding reaction was terminated by filtering through Multiscreen GF/C (Millipore) presoaked in 0.5% polyethyleneimine in Vacuum Manifold Station, followed by 3 washes with ice-cold filtration buffer containing 50 mM Tris-HCl, pH 7.4. Filter plates were dried at 60° C. for 1 h and 30 μl of scintillation cocktail were added to each well before radioactivity reading.
Readings were performed in a Trilux 1450 Microbeta radioactive counter (Perkin Elmer).
Chain of human α2δ-1 subunit of Cav2.2 calcium channel (P54289 25-1103): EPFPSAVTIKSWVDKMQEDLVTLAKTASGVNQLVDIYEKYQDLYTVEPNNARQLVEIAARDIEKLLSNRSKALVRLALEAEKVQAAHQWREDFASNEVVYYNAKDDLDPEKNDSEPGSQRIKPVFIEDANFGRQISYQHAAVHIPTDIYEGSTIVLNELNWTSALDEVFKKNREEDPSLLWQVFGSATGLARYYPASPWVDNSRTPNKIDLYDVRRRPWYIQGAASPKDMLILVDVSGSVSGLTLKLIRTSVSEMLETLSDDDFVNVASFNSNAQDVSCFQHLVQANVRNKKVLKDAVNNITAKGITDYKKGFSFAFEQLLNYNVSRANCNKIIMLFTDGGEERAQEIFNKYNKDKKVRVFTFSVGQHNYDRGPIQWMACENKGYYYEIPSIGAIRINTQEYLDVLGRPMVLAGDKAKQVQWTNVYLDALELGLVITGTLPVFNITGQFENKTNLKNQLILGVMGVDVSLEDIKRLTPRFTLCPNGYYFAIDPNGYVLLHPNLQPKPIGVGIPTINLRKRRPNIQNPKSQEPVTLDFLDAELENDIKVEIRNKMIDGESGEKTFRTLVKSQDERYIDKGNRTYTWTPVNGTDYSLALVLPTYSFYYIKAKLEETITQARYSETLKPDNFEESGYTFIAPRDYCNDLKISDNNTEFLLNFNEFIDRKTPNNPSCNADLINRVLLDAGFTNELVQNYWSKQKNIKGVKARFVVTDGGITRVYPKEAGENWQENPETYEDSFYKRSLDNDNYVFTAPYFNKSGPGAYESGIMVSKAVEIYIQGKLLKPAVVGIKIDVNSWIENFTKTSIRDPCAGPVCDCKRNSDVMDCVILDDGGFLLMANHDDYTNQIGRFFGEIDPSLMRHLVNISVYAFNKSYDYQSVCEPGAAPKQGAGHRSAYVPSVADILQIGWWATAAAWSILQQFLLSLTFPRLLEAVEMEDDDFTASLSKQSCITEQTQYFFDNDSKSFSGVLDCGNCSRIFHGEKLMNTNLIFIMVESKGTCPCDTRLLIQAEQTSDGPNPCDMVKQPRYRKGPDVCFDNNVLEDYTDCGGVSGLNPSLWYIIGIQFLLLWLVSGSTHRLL
Regarding `CNCCC(Oc1ccnc2ccccc12)c1cccs1` (centres unmarked) [Example 4, N-methyl-3-(quinolin-4-yloxy)-3-(thiophen-2-yl)propan-1-amine], the Ki was ≥ 3000 nM.

With `CCNCCC(Oc1cccc2cnccc12)c1cccs1` (centres unmarked) [Example 5, N-ethyl-3-(isoquinolin-5-yloxy)-3-(thiophen-2-yl)propan-1-amine], the Ki is < 100 nM.

For `c1ccc(CNCCC(Oc2cccc3cnccc23)c2cccs2)cc1` (centres unmarked) [Example 6, N-benzyl-3-(isoquinolin-5-yloxy)-3-(thiophen-2-yl)propan-1-amine], the Ki is ≥ 3000 nM.

In the case of `CNCC[C@@H](Oc1ccc2ncccc2c1)c1cccs1` [Example 7, (R)—N-Methyl-3-(quinolin-6-yloxy)-3-(thiophen-2-yl)propan-1-amine], the Ki was ≥ 3000 nM.

As for `CN(C)CCC(Oc1nccc2ccccc12)c1cccs1` (centres unmarked) [Example 8, 3-(isoquinolin-1-yloxy)-N,N-dimethyl-3-(thiophen-2-yl)propan-1-amine], the Ki is ≥ 3000 nM.

In the case of `CNCCC(Oc1cccc2c(C(N)=O)nccc12)c1cccs1` (centres unmarked) [Example 16, 5-(3-(methylamino)-1-(thiophen-2-yl)propoxy)isoquinoline-1-carboxamide], the Ki is < 100 nM.

`CNCCC(Oc1cccc2ccncc12)C1CCOCC1` (centres unmarked) [Example 19, 3-(isoquinolin-8-yloxy)-N-methyl-3-(tetrahydro-2H-pyran-4-yl)propan-1-amine]: the Ki was ≥ 3000 nM.

Turning to `CNCCC(Oc1cccc2ncccc12)C1CCOCC1` (centres unmarked) [Example 20, N-methyl-3-(quinolin-5-yloxy)-3-(tetrahydro-2H-pyran-4-yl)propan-1-amine], the Ki is ≥ 3000 nM.

In the case of `CNCCC(Oc1cccc2ccncc12)c1cccnc1` (centres unmarked) [Example 21, 3-(isoquinolin-8-yloxy)-N-methyl-3-(pyridin-3-yl)propan-1-amine], the Ki is ≥ 3000 nM.

Turning to `CNCCC(Oc1cccc2ccncc12)c1ccccn1` (centres unmarked) [Example 22, 3-(isoquinolin-8-yloxy)-N-methyl-3-(pyridin-2-yl)propan-1-amine], the Ki is ≥ 3000 nM.

Regarding `CNCCC(Oc1cccc2cnccc12)c1ccccn1` (centres unmarked) [Example 23, 3-(isoquinolin-5-yloxy)-N-methyl-3-(pyridin-2-yl)propan-1-amine], the Ki was ≥ 3000 nM.

Consider `CNCCC(Oc1cccc2ccncc12)c1cccc(C(F)(F)F)n1` (centres unmarked) [Example 24, 3-(isoquinolin-8-yloxy)-N-methyl-3-(6-(trifluoromethyl)pyridin-2-yl)propan-1-amine], for which the Ki is ≥ 3000 nM.

Regarding `CNCCC(Oc1cccc2cnccc12)c1cncc(Cl)c1` (centres unmarked) [Example 26, 3-(5-chloropyridin-3-yl)-3-(isoquinolin-5-yloxy)-N-methylpropan-1-amine], the Ki is ≥ 3000 nM.

For the compound `CNCCC(Oc1cccc2ccncc12)c1ccncc1` (centres unmarked) [Example 27, 3-(isoquinolin-8-yloxy)-N-methyl-3-(pyridin-4-yl)propan-1-amine], the Ki was ≥ 3000 nM.

For `CNCCC(Oc1cccc2cnccc12)c1ccc(C(F)(F)F)nc1` (centres unmarked) [Example 28, 3-(isoquinolin-5-yloxy)-N-methyl-3-(6-(trifluoromethyl)pyridin-3-yl)propan-1-amine], the Ki is ≥ 3000 nM.

With `CNCCC(Oc1cccc2cnccc12)c1cc(C(F)(F)F)ccn1` (centres unmarked) [Example 29, 3-(isoquinolin-5-yloxy)-N-methyl-3-(4-(trifluoromethyl)pyridin-2-yl)propan-1-amine], the Ki was ≥ 3000 nM.

On to `CNCCC(Oc1cccc2ncccc12)c1cc(C(F)(F)F)ccn1` (centres unmarked) [Example 31, N-methyl-3-(quinolin-5-yloxy)-3-(4-(trifluoromethyl)pyridin-2-yl)propan-1-amine], for which the Ki is ≥ 3000 nM.

As for `CNCCC(Oc1cccc2ncccc12)c1nc(C)cs1` (centres unmarked) [Example 32, N-methyl-3-(4-methylthiazol-2-yl)-3-(quinolin-5-yloxy)propan-1-amine], the Ki lay within 100 to 500 nM.

In the case of `CNCCC(Oc1cccc2ncccc12)c1ccccn1` (centres unmarked) [Example 33, N-methyl-3-(pyridin-2-yl)-3-(quinolin-5-yloxy)propan-1-amine], the Ki is ≥ 3000 nM.

With `CNCCC(Oc1cccc2ncccc12)c1ncc(C)s1` (centres unmarked) [Example 34, N-methyl-3-(5-methylthiazol-2-yl)-3-(quinolin-5-yloxy)propan-1-amine], the Ki lay in the range of 500 to 3000 nM.

Turning to `CNCCC(Oc1cccc2ncccc12)c1ccncc1` (centres unmarked) [Example 35, N-methyl-3-(pyridin-4-yl)-3-(quinolin-5-yloxy)propan-1-amine], the Ki was ≥ 3000 nM.

Turning to `CNCCC(Oc1cccc2ncccc12)c1cccnc1` (centres unmarked) [Example 36, N-methyl-3-(pyridin-3-yl)-3-(quinolin-5-yloxy)propan-1-amine], the Ki was ≥ 3000 nM.

Consider `CNCCC(Oc1cccc2cnccc12)c1cccc(C(F)(F)F)n1` (centres unmarked) [Example 37, 3-(isoquinolin-5-yloxy)-N-methyl-3-(6-(trifluoromethyl)pyridin-2-yl)propan-1-amine], for which the Ki was ≥ 3000 nM.

Take `CNCCC(Oc1cccc2ncccc12)c1cccc(C(F)(F)F)n1` (centres unmarked) [Example 38, N-methyl-3-(quinolin-5-yloxy)-3-(6-(trifluoromethyl)pyridin-2-yl)propan-1-amine]: the Ki is ≥ 3000 nM.

With `CNCCC(Oc1cccc2ccncc12)c1ccc(C(F)(F)F)nc1` (centres unmarked) [Example 39, 3-(isoquinolin-8-yloxy)-N-methyl-3-(6-(trifluoromethyl)pyridin-3-yl)propan-1-amine], the Ki was ≥ 3000 nM.

For `CNCCC(Oc1cccc2ncccc12)c1ccc(C(F)(F)F)nc1` (centres unmarked) [Example 40, N-methyl-3-(quinolin-5-yloxy)-3-(6-(trifluoromethyl)pyridin-3-yl)propan-1-amine], the Ki was ≥ 3000 nM.

For the compound `CN(C)CCC(Oc1cccc2cnccc12)c1cccs1` (centres unmarked) [Example 43, 3-(isoquinolin-5-yloxy)-N,N-dimethyl-3-(thiophen-2-yl)propan-1-amine], the Ki is 500 to 3000 nM.

Regarding `CNCC[C@H](Oc1ccc2cnccc2c1)c1cccs1` [Example 55, (S)-3-(isoquinolin-6-yloxy)-N-methyl-3-(thiophen-2-yl)propan-1-amine], the Ki lay in the range of 500 to 3000 nM.

Turning to `CNCCC(Oc1cccc2ncccc12)c1ccsc1` (centres unmarked) [Example 57, N-methyl-3-(quinolin-5-yloxy)-3-(thiophen-3-yl)propan-1-amine], the Ki was 100 to 500 nM.

On to `CNCC[C@@H](Oc1cccc2c(C)nccc12)c1cccs1` [Example 59, (R)-N-methyl-3-((1-methylisoquinolin-5-yl)oxy)-3-(thiophen-2-yl)propan-1-amine], for which the Ki is < 100 nM.

For `CNCC[C@@H](Oc1cccc2ncccc12)c1ccsc1` [Example 63, (R)-N-methyl-3-(quinolin-5-yloxy)-3-(thiophen-3-yl)propan-1-amine], the Ki was 100 to 500 nM.

For `CNCC[C@H](Oc1cccc2ccnc(C)c12)c1cccs1` [Example 64, (S)-N-methyl-3-((1-methylisoquinolin-8-yl)oxy)-3-(thiophen-2-yl)propan-1-amine], the Ki was ≥ 3000 nM.

`CNCC[C@@H](Oc1cccc2nc(C)cc(C)c12)c1cccs1` [Example 66, (R)-3-((2,4-dimethylquinolin-5-yl)oxy)-N-methyl-3-(thiophen-2-yl)propan-1-amine]: the Ki was < 100 nM.

On to `CNCCC(Oc1cccc2ccncc12)c1nccs1` (centres unmarked) [Example 70, 3-(Isoquinolin-8-yloxy)-N-methyl-3-(thiazol-2-yl)propan-1-amine], for which the Ki was ≥ 3000 nM.

Turning to `CNCCC(Oc1ccc2cccnc2c1)c1cccs1` (centres unmarked) [Example 73, N-methyl-3-(quinolin-7-yloxy)-3-(thiophen-2-yl)propan-1-amine], the Ki is 500 to 3000 nM.

In the case of `CNCCC(Oc1cccc2c(C#N)nccc12)c1cccs1` (centres unmarked) [Example 75, 5-(3-(Methylamino)-1-(thiophen-2-yl)propoxy)isoquinoline-1-carbonitrile], the Ki is 100 to 500 nM.

Regarding `CNCC[C@H](Oc1cccc2ncccc12)c1nccs1` [Example 76, (S)—N-Methyl-3-(quinolin-5-yloxy)-3-(thiazol-2-yl)propan-1-amine], the Ki lay in the range of 100 to 500 nM.

Turning to `CNCC[C@@H](Oc1cccc2ncccc12)c1nccs1` [Example 77, (R)—N-methyl-3-(quinolin-5-yloxy)-3-(thiazol-2-yl)propan-1-amine], the Ki was in the range of 500 to 3000 nM.

On to `CNCC[C@H](Oc1cccc2ccncc12)c1ccc(F)s1` [Example 80, (S)-3-(5-Fluorothiophen-2-yl)-3-(isoquinolin-8-yloxy)-N-methylpropan-1-amine], for which the Ki was 500 to 3000 nM.

For the compound `CCNCC[C@@H](Oc1cccc2cnccc12)c1cccs1` [Example 88, (R)-N-ethyl-3-(isoquinolin-5-yloxy)-3-(thiophen-2-yl)propan-1-amine], the Ki lay within 100 to 500 nM.

Turning to `CCNCC[C@@H](Oc1cccc2c(C#N)nccc12)c1cccs1` [Example 89, (R)-5-(3-(ethylamino)-1-(thiophen-2-yl)propoxy)isoquinoline-1-carbonitrile], the Ki was < 100 nM.

Turning to `CCNCC[C@H](Oc1cccc2ncccc12)c1cccs1` [Example 90, (S)-N-ethyl-3-(quinolin-5-yloxy)-3-(thiophen-2-yl)propan-1-amine], the Ki was 100 to 500 nM.

For `CCNCC[C@H](Oc1cccc2c(C#N)nccc12)c1cccs1` [Example 91, (S)-5-(3-(ethylamino)-1-(thiophen-2-yl)propoxy)isoquinoline-1-carbonitrile], the Ki was in the range of 100 to 500 nM.

With `CCNCC[C@H](Oc1cccc2cnccc12)c1cccs1` [Example 92, (S)-N-ethyl-3-(isoquinolin-5-yloxy)-3-(thiophen-2-yl)propan-1-amine], the Ki is ≥ 3000 nM.

For the origin of these results see US10941138B2, “Quinoline and isoquinoline derivatives for treating pain and pain related conditions” (ESTEVE PHARMACEUTICALS, S.A., priority 2016, dated 2021).
